One data set is described as follows: Tolerability in mice. Type of data set: in vivo. The settings on record: same strain as efficacy studies, 30 mg/kg QD PO, unpublished observations. The method, then: For acalabrutinib, the current clinically recommended oral dose in MCL is 100 mg twice daily (BID)[18],[19], which results in an exposure of 1111 h·ng/mL[18],[19]. There are no published data on the pharmacokinetics of acalabrutinib in mice. The compound was administered at 15 mg/kg BID in mouse xenograft tumor models, giving a total daily dose of 30 mg/kg.

Data set [1] has as its target T1, BTK (Homo sapiens, UniProt Q06187). The data set is described as follows: Millipore Kinase Profiler screening panel, BTK. The data set is classed as biochemical. Further details: purchased EMD Millipore. The conditions noted are these: n = 2. The method, then: (§1) The Kinase Profiler™ screening panel (EMD Millipore, Burlington, MA, USA) was used to test the inhibitory activity of TL-895 against 270 protein kinases. Kinases were incubated with TL-895 (1 µM) for 20 min to 4 h at room temperature, according to standard kinome screen procedures. […]

The subject of the next data set is Maver-1. The data set is described as follows: Cell viability, ATPlite. The data set is classed as cell-based. The settings on record: Homo sapiens, Maver1, Maver-1 (MCL), 72 h. The protocol:
(§2) The potency of TL-895 effects on cell viability was further examined in vitro in a panel of diffuse large B-cell lymphoma (DLBCL) and MCL cell lines, comprising ten germinal B-cell like subtype (GCB)-DLBCL cell lines, six activated B-cell like (ABC)-DLBCL cell lines, and six MCL cell lines (Horizon Discovery Inc, Cambridge MA, USA). Cells were seeded into 384-well plates (500 cells/well) and incubated (37 °C for 24 h) before treatment with varying concentrations of TL-895 for 72 h. ATP levels were analyzed using the ATPlite Luminescence Assay System (Perkin Elmer, UK). Growth inhibition and maximum response were calculated using the Chalice Analyzer (Horizon Discovery Inc).
For orientation: ATP-based viability assays read luminescence as a measure of living cells.

The subject of a further data set is Pfeiffer. The data set is described as follows: Cell viability, ATPlite. The settings on record: Homo sapiens, Pfeiffer (GCB-DLBCL), 72 h. Type of data set: cell-based. The method, then:
as §2

For another data set, the system named is SU-DHL-5-epst. The data set is described as follows: Cell viability, ATPlite. Type of data set: cell-based. The conditions noted are these: Homo sapiens; SU-DHL-5-epst (GCB-DLBCL), 72 h; read-out: Max response (GI %). The method, then:
as §2

Another data set relates to SU-DHL-8-epst. The data set is described as follows: Cell viability, ATPlite. The data set is classed as cell-based. The conditions noted are these: Homo sapiens, SU-DHL-8-epst (ABC-DLBCL), 72 h. The method, then: as §2
In a further data set the test system is GRANTA-519. The data set is described as follows: Cell viability, ATPlite. The data set is classed as cell-based. The settings on record: Homo sapiens; GRANTA-519 (MCL), 72 h; read-out: Max response (GI %). The method, then: as §2
In another data set the test system is SU-DHL-4-epst. The data set is described as follows: Cell viability, ATPlite. Type of data set: cell-based. The conditions noted are these: Homo sapiens, SU-DHL-4-epst (GCB-DLBCL), 72 h. The method, then:
as §2

Another data set deals with U-2932. The data set is described as follows: Cell viability, ATPlite. Type of data set: cell-based. The conditions noted are these: Homo sapiens, U2932, U-2932 (ABC-DLBCL), 72 h. The method, then:
as §2

In the next data set the test system is B-cell malignancies. The settings on record: cited from earlier work.
In the next data set the test system is HepG2 cells. The data set is described as follows: Cytotoxicity by ATP content (CellTiter-Glo). Type of data set: cell-based, human. The conditions noted are these: HepG2 EC50 at 24 and 72 h.
Data set [2] in a line: Cytotoxicity by ATP content (CellTiter-Glo). Type of data set: cell-based, human. The settings on record: human, HepG2 cells.
Procedure: (§3) HepG2 cells (human hepatocellular carcinoma [epithelial]) and primary human hepatocytes were cultured in DMEM/F-12 medium supplemented with antibiotics, sodium pyruvate, insulin and 10% fetal calf serum. During the testing steps, the medium was replaced by serum-free media containing bovine serum albumin (BSA) and dexamethasone. All the cultures are incubated at 37 °C in a humidified chamber containing 5% CO2. […] HepG2 and primary hepatocytes were cultured in 96-well tissue culture plates either for luminescence (2E4/well in 100 µL) or pre-coated with collagen I (3.5E4/well in 100 µL, respectively).
(§4) For the cytotoxicity data, the % values relative (%RV) to the vehicle controls were calculated for each dose level. […] The overall EC50s were the averages of the values obtained from each experiment (PRISM® GraphPad™ Software, Boston, MA).
A further data set concerns HBL-1. The data set is described as follows: Cell viability, ATPlite. Type of data set: cell-based, human. The protocol:
as §2

For another data set, the system named is OCI-Ly3. The data set is described as follows: Cell viability, ATPlite. Type of data set: cell-based, human. The protocol:
as §2

A further data set has as its system SU-DHL-2-epst. The data set is described as follows: Cell viability, ATPlite. Type of data set: cell-based, human. The method, then:
as §2

The next data set relates to TMD8. The data set is described as follows: Cell viability, ATPlite. The data set is classed as cell-based, human. The protocol:
as §2

In data set [3] the target is T1, BTK. The data set is described as follows: Off-Chip mobility shift kinase assay (potency). Type of data set: biochemical. Details: Purified full-length recombinant BTK (Carna Biosciences #08–080); purchased Carna Biosciences 08–080. The conditions noted are these: 75 µM ATP, 90 min, n = 9. The method, then: Purified full-length recombinant BTK (Carna Biosciences #08–080) was diluted in buffer (see Supplementary Material) to a final concentration of 0.05 ng/µL with 75 µM ATP and 1 µM of the peptide FITC-AHA-[…]-NH2 (Tufts Core Facility, Boston, MA, USA) into microtiter plates. TL-895 (0.038–10,000 nM) was added and the samples were incubated at room temperature for 90 min (min) before the addition of stop buffer containing 10 mM ethylenediamine tetra-acetic acid (EDTA; see Supplementary Material). Samples were read on a Caliper LC3000 (Caliper Life Sciences, Waltham, MA, USA) using an Off-Chip mobility shift assay format to measure percentage conversion of substrate to product, from which half maximal inhibitory concentration (IC50)–response curves were generated.
potent second-generation BTK inhibitor, for the treatment of B-cell
Samantha M. Goodstal, Jing Lin, Timothy Crandall, Lindsey Crowley, Andrew T. Bender,
Albertina Pereira, Maria Soloviev, John S. Wesolowski, Riham Iadevaia,
Sven-Eric Schelhorn, Edith Ross, Federica Morandi, Jianguo Ma, Anderson Clark
Kinase assay buffer components
4 mM dithiothreitol (Sigma, D0632)
100 mM 4-(2-hydroxyethyl)-1-piperazineethanesulfonic acid (HEPES) pH 7.5
0.227% Coating Reagent #3 (Caliper Life Sciences)
TL-89 5 lo g c onc ent rati on (M )
Supplementary Figure S1. Inhibition of recombinant human full-length BTK activity by TL-
895 and resulting IC50. […]

The target of another data set is T2, Txk (Homo sapiens, UniProt P42681).
T2 construct: purchased EMD Millipore
The data set is described as follows: Millipore Kinase Profiler screening panel, Txk. The data set is classed as biochemical. The protocol: as §1

[4] abbreviates: Homo sapiens, HBL1, HBL-1 (ABC-DLBCL), 72 h.
The mark [5] stands for this setting: Homo sapiens, TMD8 (ABC-DLBCL), 72 h.

T1 sequence (Q06187 whole entry): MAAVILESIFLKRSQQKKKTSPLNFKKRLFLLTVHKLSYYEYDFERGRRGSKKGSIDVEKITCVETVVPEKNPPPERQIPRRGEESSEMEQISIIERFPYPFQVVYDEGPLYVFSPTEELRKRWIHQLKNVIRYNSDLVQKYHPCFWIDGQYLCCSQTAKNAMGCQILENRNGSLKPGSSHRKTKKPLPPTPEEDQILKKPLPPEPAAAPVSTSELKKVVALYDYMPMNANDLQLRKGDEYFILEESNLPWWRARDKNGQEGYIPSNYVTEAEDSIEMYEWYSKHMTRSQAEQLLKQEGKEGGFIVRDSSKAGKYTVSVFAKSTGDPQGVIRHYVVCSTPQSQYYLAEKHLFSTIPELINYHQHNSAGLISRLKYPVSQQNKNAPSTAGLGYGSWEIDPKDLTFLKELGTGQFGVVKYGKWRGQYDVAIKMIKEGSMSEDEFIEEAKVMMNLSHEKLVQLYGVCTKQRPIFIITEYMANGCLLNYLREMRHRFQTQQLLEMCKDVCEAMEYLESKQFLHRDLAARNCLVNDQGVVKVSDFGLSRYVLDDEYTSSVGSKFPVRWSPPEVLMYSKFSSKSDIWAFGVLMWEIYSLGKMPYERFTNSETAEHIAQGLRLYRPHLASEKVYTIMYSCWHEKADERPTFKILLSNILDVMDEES
T2 sequence (P42681 whole entry): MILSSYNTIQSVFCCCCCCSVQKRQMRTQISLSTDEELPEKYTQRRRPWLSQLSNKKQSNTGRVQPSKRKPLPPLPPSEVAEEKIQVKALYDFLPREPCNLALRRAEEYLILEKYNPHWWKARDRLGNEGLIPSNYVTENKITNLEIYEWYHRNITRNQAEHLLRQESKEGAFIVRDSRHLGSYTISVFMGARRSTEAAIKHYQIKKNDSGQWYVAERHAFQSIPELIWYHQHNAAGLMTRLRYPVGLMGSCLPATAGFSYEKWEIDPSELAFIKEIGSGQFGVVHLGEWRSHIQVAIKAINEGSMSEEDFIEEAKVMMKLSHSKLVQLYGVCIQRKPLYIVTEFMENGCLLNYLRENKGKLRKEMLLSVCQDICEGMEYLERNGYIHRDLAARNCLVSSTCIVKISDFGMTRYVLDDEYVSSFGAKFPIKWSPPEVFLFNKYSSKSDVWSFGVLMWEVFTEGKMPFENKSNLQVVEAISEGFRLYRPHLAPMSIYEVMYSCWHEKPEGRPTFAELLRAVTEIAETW
Procedure for HepG2 cells: as §3, §4

Turning to `CC#CC(=O)N1CCC[C@H]1c1nc(-c2ccc(C(=O)Nc3ccccn3)cc2)c2c(N)nccn12` [Acalabrutinib], in the data set “Tolerability in mice”, the Tolerability result is “no significant tolerability issues”.
As for `C=CC(=O)N1CCC(F)(CNc2ncnc(N)c2-c2ccc(Oc3ccccc3)cc2)CC1` [TL-895], the IC50 at BTK [1] amounted to 0.0185 µM; in the data set with Pfeiffer, 21 µM; with SU-DHL-8-epst, 25.7 µM; in the data set on SU-DHL-4-epst it was 11.9 µM; in the data set on U-2932, 6.6 µM; in the data set on HBL-1 (setting [4]) it was 10.3 µM. Further, the IC50 was determined as 0.01 µM with TMD8 (setting [5]), 0.0015 µM on BTK [3] and 0.062 µM against Txk. For the same compound, the GI50 in the data set on Maver-1 was found to be 27.5 µM; in the data set with Pfeiffer it was 19.6 µM; with SU-DHL-8-epst, 23 µM; with SU-DHL-4-epst it was 10.6 µM; with U-2932, 1.97 µM; in the data set with HBL-1 (setting [4]), 0.56 µM. For the same compound, the concentration for 50% growth inhibition (GI50) in the data set on TMD8 (setting [5]) is 0.01 µM. The Emax is 53% in the data set on Maver-1 (read-out: Max response (GI %)); 99% in the data set on Pfeiffer (read-out: Max response (GI %)); 42% in the data set with SU-DHL-5-epst; 62% with SU-DHL-8-epst (read-out: Max response (GI %)); 50% in the data set on GRANTA-519; 94% in the data set on SU-DHL-4-epst (read-out: Max response (GI %)). The Emax in the data set with U-2932 (read-out: Max response (GI %)) is 105%; in the data set on HBL-1 (Homo sapiens, HBL1, HBL-1 (ABC-DLBCL), 72 h, read-out: Max response (GI %)), 89%; with OCI-Ly3 (Homo sapiens, OCI-Ly3 (ABC-DLBCL), 72 h, read-out: Max response (GI %)) it was 39%; with SU-DHL-2-epst (Homo sapiens, SU-DHL-2-epst (ABC-DLBCL), 72 h, read-out: Max response (GI %)) it was 2%; in the data set on TMD8 (Homo sapiens, TMD8 (ABC-DLBCL), 72 h, read-out: Max response (GI %)), 181%. Also, the Dose-limiting toxicities result in the data set with B-cell malignancies (doses up to 900 mg/day) was “no dose-limiting toxicities were reported”. In addition, the Maximum tolerated dose entry in the data set on B-cell malignancies (doses up to 900 mg/day) is “not reached”. Further, the “Patients with best response of PR or higher” value in the data set with B-cell malignancies (monotherapy) is “Half of patients”. For the same compound, the “Patients with treatment-related grade 3–4 adverse events” value in the data set with B-cell malignancies (three patients) is given as 17%. Further, in the data set on HepG2 cells, the “Cytotoxicity EC50 in HepG2 cells relative to IC50s in sensitive MCL and DLBCL cell lines” value is 5–5000 fold. This compound yielded an EC50 at 24 h in [2] (HepG2, 24 h) above 50 µM. For the same compound, in data set [2] (HepG2, 72 h), the EC50 at 72 h was above 50 µM. For the same compound, the “Sensitivity to TL-895” value in the data set on HBL-1 (HBL-1, mutations in both CD79b and MyD88) was “sensitive”; in the data set with OCI-Ly3 (OCI-Ly3, MyD88 mutation, CD79 wild-type) it was “unresponsive”; in the data set with SU-DHL-2-epst (SU-DHL-2-epst, MyD88 mutation, CD79 wild-type) it was “unresponsive”; with TMD8 (TMD8, mutations in both CD79b and MyD88), “sensitive”.

One may read the IC50 as the concentration needed to halve the response being measured. By GI50 is commonly meant the concentration at which growth is held to half of that of the control. Read a high GI50 as less potent growth inhibition. The EC50 is the concentration needed to bring the measured effect to its halfway point. Low readings indicate an effect from little substance, high ones a need for much substance.

The record behind these values is PMC10663516 (Scientific Reports, 2023).
